# Laboratory results reported in patent US10294202B2, “Pyrrolidinones as herbicides” (FMC Corporation, priority 2013, dated 2019).
# Key:
# galium = assay: Test A postemergence herbicide test; format: in vivo, Galium aparine; settings: for Plant response rating, Galium: 125 g ai/ha, 0 to 100 scale, 0 is no effect, 100 is complete control; for Galium plant response rating (0 to 100 scale, 0 is no effect, 100 is complete control): 500 g ai/ha
# Summary of the method: (§1)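 Ratings compare treated with untreated plants roughly 10 days after a postemergence application made at the one- to two-leaf stage. Scoring uses 0–100, where 0 means no effect and 100 complete control.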
# wheat = assay: Test A pre-/postemergence herbicide test; format: in vivo, Triticum aestivum; settings: Postemergence; for Plant response rating, Wheat: 125 g ai/ha, 0 to 100 scale, 0 is no effect, 100 is complete control; for Wheat plant response rating (0 to 100 scale, 0 is no effect, 100 is complete control): 500 g ai/ha
# Summary of the method: (§2)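 Directed soil spray to seeded pots (preemergence) or spray onto one- to two-leaf seedlings 2–10 cm tall (postemergence); loam/sand substrate throughout. Evaluated visually after about 10 days against untreated plants, 0 = no effect, 100 = complete control.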
# rice = assay: Test B flooded paddy test; format: in vivo, Oryza sativa; settings: 500 g ai/ha, Flood; scale of 0 to 100 where 0 is no effect and 100 is complete control
# Summary of the method: (§3)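 Visual ratings from 0, meaning no effect, up to 100, meaning complete control, were made by comparison with untreated controls 13 to 15 days after treatment. Test compounds went straight into floodwater standing 3 cm over the soil of pots holding 2-leaf seedlings.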
# giant foxtail = assay: Test A pre-/postemergence herbicide test; format: in vivo, Setaria faberii; settings: for Plant response rating, Foxtail, Giant: 0 to 100 scale
# Summary of the method: as §2
# blackgrass = assay: Test A postemergence herbicide test; format: in vivo, Alopecurus myosuroides; settings: for Plant response rating, Blackgrass: 125 g ai/ha, 0 to 100 scale, 0 is no effect, 100 is complete control; for Blackgrass plant response rating (0 to 100 scale, 0 is no effect, 100 is complete control): 500 g ai/ha
# Summary of the method: as §1
# kochia = assay: Test A pre-/postemergence herbicide test; format: in vivo, Kochia scoparia; settings: for Plant response rating, Kochia: 0 to 100 scale
# Summary of the method: as §2
# ryegrass, Italian = assay: Test A pre-/postemergence herbicide test; format: in vivo, Lolium multiflorum; settings: for Plant response rating, Ryegrass, Italian: 0 to 100 scale
# Summary of the method: as §2
# barnyardgrass [1] = assay: Test A pre-/postemergence herbicide test; format: in vivo, Echinochloa crus-galli
# Summary of the method: as §2
# pigweed = assay: Test A pre-/postemergence herbicide test; format: in vivo, Amaranthus retroflexus; settings: for Plant response rating, Pigweed: 0 to 100 scale
# Summary of the method: as §2
# ragweed = assay: Test A pre-/postemergence herbicide test; format: in vivo, Ambrosia elatior; settings: for Plant response rating, Ragweed: 0 to 100 scale
# Summary of the method: as §2
# corn = assay: Test A pre-/postemergence herbicide test; format: in vivo, Zea mays; settings: Postemergence; for Plant response rating, Corn: 125 g ai/ha, 0 to 100 scale, 0 is no effect, 100 is complete control; for Corn plant response rating (0 to 100 scale, 0 is no effect, 100 is complete control): 500 g ai/ha
# Summary of the method: as §2
# sedge, umbrella = assay: Test B flooded paddy test; format: in vivo, Cyperus difformis; settings: 500 g ai/ha, Flood; scale of 0 to 100 where 0 is no effect and 100 is complete control
# Summary of the method: as §3
# barnyardgrass [2] = assay: Test B flooded paddy test; format: in vivo, Echinochloa crus-galli; settings: 500 g ai/ha, Flood; scale of 0 to 100 where 0 is no effect and 100 is complete control
# Summary of the method: as §3
# ducksalad = assay: Test B flooded paddy test; format: in vivo, Heteranthera limosa; settings: 500 g ai/ha, Flood; scale of 0 to 100 where 0 is no effect and 100 is complete control
# Summary of the method: as §3
# [3] = 125 g ai/ha, visual rating, 0 no effect, 100 complete control, approximately 10 days, preemergence
# [4] = Postemergence, 125 g ai/ha, 0 is no effect, 100 is complete control
# [5] = preemergence, 500 g ai/ha, 0 is no effect and 100 is complete control
# [6] = 125 g ai/ha, visual rating, 0 to 100 scale, 0 no effect, 100 complete control, approximately 10 days, preemergence
# [7] = Postemergence, 125 g ai/ha, 0 to 100 scale, 0 is no effect, 100 is complete control
SMILES,"Plant response rating, Galium (galium)","Galium plant response rating (0 to 100 scale, 0 is no effect, 100 is complete control) (galium)","Plant response rating, Wheat (wheat)","Wheat plant response rating (0 to 100 scale, 0 is no effect, 100 is complete control) (wheat)","Plant response rating, Rice (rice)","Plant response rating, Foxtail, Giant (giant foxtail; [3])","Plant response rating, Foxtail, Giant (giant foxtail; [4])","Foxtail, Giant plant response rating (0 to 100 scale, 0 is no effect, 100 is complete control) (giant foxtail; Postemergence, 500 g ai/ha)","Plant response rating, Blackgrass (blackgrass)","Blackgrass plant response rating (0 to 100 scale, 0 is no effect, 100 is complete control) (blackgrass)","Plant response rating, Kochia (kochia; [3])","Plant response rating, Kochia (kochia; [4])","Kochia plant response rating (0 to 100 scale, 0 is no effect, 100 is complete control) (kochia; Postemergence, 500 g ai/ha)","Plant response rating, Kochia (kochia; [5])","Plant response rating, Ryegrass, Italian (ryegrass, Italian; [3])","Plant response rating, Ryegrass, Italian (ryegrass, Italian; [4])","Ryegrass, Italian plant response rating (0 to 100 scale, 0 is no effect, 100 is complete control) (ryegrass, Italian; Postemergence, 500 g ai/ha)","Plant response rating, Ryegrass, Italian (ryegrass, Italian; [5])","Plant response rating, Barnyardgrass (barnyardgrass [1]; [6])","Plant response rating, Barnyardgrass (barnyardgrass [1]; [7])",other results
CCc1cccc(C2CNC(=O)C2C(=O)Nc2cccc(F)c2F)c1 (racemic) [Compound 170],60,60,0,60,15,80,60,90,50,60,50,20,50,70,0,20,60,50,90,90,"Plant response rating, Foxtail, Giant (giant foxtail; preemergence, 500 g ai/ha): 90; Barnyardgrass plant response rating (0 to 100 scale, 0 is no effect, 100 is complete control) (barnyardgrass [1]; Postemergence, 500 g ai/ha): 90; Plant response rating, Barnyardgrass (barnyardgrass [1]; preemergence, 500 g ai/ha, 0 to 100 scale (0 no effect, 100 complete control)): 90; Plant response rating, Pigweed (pigweed; [3]): 50; Plant response rating, Pigweed (pigweed; [4]): 20; Pigweed plant response rating (0 to 100 scale, 0 is no effect, 100 is complete control) (pigweed; Postemergence, 500 g ai/ha): 30; Plant response rating, Pigweed (pigweed; [5]): 50; Plant response rating, Ragweed (ragweed; [3]): 0; Plant response rating, Ragweed (ragweed; [4]): 20; Ragweed plant response rating (0 to 100 scale, 0 is no effect, 100 is complete control) (ragweed; Postemergence, 500 g ai/ha): 50; Plant response rating, Ragweed (ragweed; [5]): 60; Plant response rating, Corn (corn): 20; Corn plant response rating (0 to 100 scale, 0 is no effect, 100 is complete control) (corn): 70; Plant response rating, Sedge, Umbrella (sedge, umbrella): 0; Plant response rating, Barnyardgrass (barnyardgrass [2]): 85; Plant response rating, Ducksalad (ducksalad): 100"
O=C1NCC(c2ccc(OC(F)F)cc2)C1C(=O)Nc1ccccc1Br (stereo not drawn) [Compound 225],20,30,0,20,0,80,40,70,0,30,0,0,0,30,0,0,0,40,20,30,"Plant response rating, Foxtail, Giant (giant foxtail; [5]): 90; Barnyardgrass plant response rating (0 to 100 scale, 0 is no effect, 100 is complete control) (barnyardgrass [1]; Postemergence, 500 g ai/ha): 60; Plant response rating, Barnyardgrass (barnyardgrass [1]; preemergence, 500 g ai/ha, 0 to 100 scale, 0 is no effect and 100 is complete control): 30; Plant response rating, Pigweed (pigweed; [3]): 0; Plant response rating, Pigweed (pigweed; [4]): 0; Pigweed plant response rating (0 to 100 scale, 0 is no effect, 100 is complete control) (pigweed; Postemergence, 500 g ai/ha): 0; Plant response rating, Pigweed (pigweed; [5]): 0; Plant response rating, Ragweed (ragweed; [3]): 0; Plant response rating, Ragweed (ragweed; [4]): 0; Ragweed plant response rating (0 to 100 scale, 0 is no effect, 100 is complete control) (ragweed; Postemergence, 500 g ai/ha): 0; Plant response rating, Ragweed (ragweed; [5]): 0; Plant response rating, Corn (corn): 0; Corn plant response rating (0 to 100 scale, 0 is no effect, 100 is complete control) (corn): 20; Plant response rating, Sedge, Umbrella (sedge, umbrella): 0; Plant response rating, Barnyardgrass (barnyardgrass [2]): 0; Plant response rating, Ducksalad (ducksalad): 90"
